In ChEMBL document CHEMBL4627246, “Pyroglutamide-Based P2X7 Receptor Antagonists Targeting Inflammatory Bowel Disease” (J Med Chem, 2020):

Legend:
Type in all cases: cell-based
[1] = system: BT-549; assay: Cytotoxicity against human BT549 cells assessed as effect on cell growth at 10 uM incubated for 48 hrs by sulforhodamine B assay; conditions: bt-549, 48 h
[2] = system: T47D; assay: Cytotoxicity against human T47D cells assessed as effect on cell growth at 10 uM incubated for 48 hrs by sulforhodamine B assay
[3] = system: SF-539; assay: Cytotoxicity against human SF539 cells assessed as effect on cell growth at 10 uM incubated for 48 hrs by sulforhodamine B assay; conditions: sf-539, 48 h
[4] = system: Hs-578T; assay: Cytotoxicity against human Hs 578T cells assessed as effect on cell growth at 10 uM incubated for 48 hrs by sulforhodamine B assay
[5] = system: OVCAR-5; assay: Cytotoxicity against human OVCAR5 cells assessed as effect on cell growth at 10 uM incubated for 48 hrs by sulforhodamine B assay; conditions: ovcar-5, 48 h
[6] = system: ACHN; assay: Cytotoxicity against human ACHN cells assessed as effect on cell growth at 10 uM incubated for 48 hrs by sulforhodamine B assay
[7] = system: MCF7; assay: Cytotoxicity against human MCF7 cells assessed as effect on cell growth at 10 uM incubated for 48 hrs by sulforhodamine B assay; conditions: mcf7, 48 h
[8] = system: NCI-H460; assay: Cytotoxicity against human NCI-H460 cells assessed as effect on cell growth at 10 uM incubated for 48 hrs by sulforhodamine B assay; conditions: nci-h460, 48 h
[9] = system: SW-620; assay: Cytotoxicity against human SW620 cells assessed as effect on cell growth at 10 uM incubated for 48 hrs by sulforhodamine B assay; conditions: sw-620, 48 h
[10] = system: UACC-62; assay: Cytotoxicity against human UACC62 cells assessed as effect on cell growth at 10 uM incubated for 48 hrs by sulforhodamine B assay; conditions: uacc-62, 48 h
[11] = system: HOP-62; assay: Cytotoxicity against human HOP62 cells assessed as effect on cell growth at 10 uM incubated for 48 hrs by sulforhodamine B assay; conditions: hop-62, 48 h
[12] = system: RXF 393; assay: Cytotoxicity against human RXF393 cells assessed as effect on cell growth at 10 uM incubated for 48 hrs by sulforhodamine B assay; conditions: rxf 393, 48 h
[13] = system: HL-60(TB); assay: Cytotoxicity against human HL-60(TB) cells assessed as effect on cell growth at 10 uM incubated for 48 hrs by sulforhodamine B assay
[14] = system: SNB-19; assay: Cytotoxicity against human SNB19 cells assessed as effect on cell growth at 10 uM incubated for 48 hrs by sulforhodamine B assay; conditions: snb-19, 48 h
[15] = system: MDA-MB-231; assay: Cytotoxicity against human MDA-MB-231 cells assessed as effect on cell growth at 10 uM incubated for 48 hrs by sulforhodamine B assay; conditions: mda-mb-231, 48 h
[16] = system: HOP-92; assay: Cytotoxicity against human HOP92 cells assessed as effect on cell growth at 10 uM incubated for 48 hrs by sulforhodamine B assay; conditions: hop-92, 48 h
[17] = system: HCT-15; assay: Cytotoxicity against human HCT15 cells assessed as effect on cell growth at 10 uM incubated for 48 hrs by sulforhodamine B assay; conditions: hct-15, 48 h
[18] = system: PC-3; assay: Cytotoxicity against human PC3 cells assessed as effect on cell growth at 10 uM incubated for 48 hrs by sulforhodamine B assay; conditions: pc-3, 48 h
[19] = system: UO-31; assay: Cytotoxicity against human UO31 cells assessed as effect on cell growth at 10 uM incubated for 48 hrs by sulforhodamine B assay; conditions: uo-31, 48 h
[20] = system: CCRF-CEM; assay: Cytotoxicity against human CCRF-CEM cells assessed as effect on cell growth at 10 uM incubated for 48 hrs by sulforhodamine B assay

Measured: Activity

O=C(Nc1ccc(Cl)cc1Cl)[C@@H]1CCC(=O)N1Cc1ccccc1Cl
Non-Toxic: all assays above

CCCCCCN1C(=O)[C@@H]2CCC(=O)N2C1N(C)C (stereo not given in full)
Non-Toxic: all assays above

CCCCCCN1C(=O)[C@@H]2C/C(=C\N(C)C)C(=O)N2C1N(C)C (stereo not given in full)
Non-Toxic: all assays above

O=C(NCCc1ccccc1)[C@@H]1CCC(=O)N1Cc1ccc(Cl)cc1Cl
Non-Toxic: all assays above

O=C(NCc1ccc(Cl)cc1Cl)c1ccccn1
Non-Toxic: all assays above

O=C(NCc1ccc(Cl)cc1Cl)[C@@H]1CCC(=O)N1Cc1ccccc1
Non-Toxic: all assays above

O=C1N[C@H](C(=O)NCc2ccc(Cl)cc2Cl)C/C1=C/NCc1ccc(Cl)cc1Cl
Non-Toxic: all assays above

O=C(NCC1CCCCC1)[C@@H]1CCC(=O)N1c1ccccc1
Non-Toxic: all assays above

Cc1ccc(NC(=O)[C@@H]2CCC(=O)N2c2ccccc2)cc1
Non-Toxic: all assays above

N#Cc1ccc(N2C(=O)CC[C@H]2C(=O)NCc2ccc(Cl)cc2Cl)cc1
Non-Toxic: all assays above

O=C(NCc1ccc(Cl)cc1Cl)[C@@H]1CCC(=O)N1c1ccc(Cl)cc1Cl
Non-Toxic: all assays above

CN1CCN(/C=C2\C[C@@H](C(=O)NCc3ccc(Cl)cc3Cl)N(c3cccs3)C2=O)CC1
Non-Toxic: all assays above

O=C(NCc1ccc(Cl)cc1Cl)[C@@H]1CCC(=O)N1C(c1ccccc1)c1ccccc1
Non-Toxic: all assays above

CN(C)/C=C1\C[C@H]2C(=O)N(Cc3ccccc3Cl)C(N(C)C)N2C1=O (stereo not given in full)
Non-Toxic: all assays above
